Results from patent publication EP0160258A2, “(6,11-Dihydro-11-oxodibenz(bm,e)oxepinyl)pentanols, a process and intermediates for their preparation and their use as medicaments” (HOECHST-ROUSSEL PHARMACEUTICALS INCORPORATED, priority 1984, dated 1985).
Where two headings read alike, the source gives them in different places.

System: adjuvant-induced polyarthritis
Experiment: adjuvant-induced polyarthritis syndrome in rats (paw volume)
Assay type: in vivo
Conditions: Rattus norvegicus, 504 h, dose effecting 50 % inhibition of paw volume, oral, day before adjuvant and continued for 21 days, male Charles River-Wistar Lewis rats
Method: The (6,11-dihydro-11-oxodibenz[b,e]oxepinyl)pentanols and derivatives thereof of the present invention are useful as antiarthritic agents due to their ability to specifically suppress arthritis-type inflammation in mammals. […] M. Perrone and F. D. Wood, Arthritis and Rheumatism, 2, 440 (1959).
Groups of 10 male Charles River-Wistar Lewis rats weighing 150 to 175 g were individually housed and maintained on a regular rat chow diet. Water was given ad libitum. The adjuvant was prepared by suspending 75 mg of Mycobacterium butyricum (Difeo Laboratories, Detroit, Michigan) in 10 ml of white paraffin oil with continuous stirring for 2 hrs at room temperature prior to administration. Test compounds are prepared by suspending the drug in water, adding one drop of Tween 80 per 10 ml of suspension, and homogenizing. The adjuvant suspension (0.1 ml) was injected into the footpad of the left hind paw of the rat. Test compound suspensions were administered orally (10 ml/kg) the day before adjuvant suspension injection and the administration was continued for 21 days. One group of ten rats was used for the test drug, standard, adjuvant-injected control and non-injected control. Control animals received vehicle (10 ml/kg). Three doses of test drug and one dose of standard preparation were used. Injected and non-injected paw volumes were determined on the day the adjuvant suspension was given, and in subsequent days thereafter (usually days 5, 10, 18 and 21) by the method of C. A. Wilson, et al., Proc. Soc. Exp. Biol. Med., 111 544 (1962).
The percent inhibition of paw volume (injected and non-injected hind paw) was calculated by the following formula: [formula] ED50-values, i.e., the dose at which the drug effects a 50 % inhibition of paw volume, were estimated by the method of J. T. Litchfield and F. Wilcoxon, J. Pharm. Exp. Thes., 96, 99 (1948), and statistically evaluated by means of the sudent "t" test.

[1] = injected hind paw, read-out: ED50 (injected)
[2] = non-injected hind paw, read-out: ED50 (non-injected)

Row | SMILES | ED50 [1] [mg/kg] | ED50 [2] [mg/kg]
1 | CC(CCCO)c1ccc2c(c1)C(=O)c1ccccc1CO2 (stereo not shown) [4-(6,11-Dihydro-11-oxodibenz[b,e]oxepin-2-yl)pentanol] | 5.6 | 3.9
2 | CCCCC1C(=O)N(c2ccccc2)N(c2ccccc2)C1=O [phenylbutazone] | 12 | 6.8
